Assay results from publication PMC5867624, “Molecular Characterization of a Novel N-Acetylneuraminate Lyase from a Deep-Sea Symbiotic Mycoplasma” (Marine Drugs, 2018).

Key:
MyNal [1] = molecular target: T1, MyNal (Mycoplasma sp., UniProt A0A2P1G7E2); assay: HPLC of Neu5Ac formed, synthesis; design: gene nanA; details: synthesis direction; 20 mM pyruvate fixed; 20 mM phosphate pH 7.0; optimal temperature (65 °C)
MyNal [2] = molecular target: T1, MyNal; assay: LDH/NADH coupled spectrophotometric assay, […] nm, cleavage; format: biochemical; design: gene nanA; full-length gene (885 bp) in pET-32a(+), fusion tags kept, about 52 kDa, E. coli BL21(DE3), Ni-NTA; details: cleavage direction; 20 mM phosphate pH 7.0; optimal temperature and pH (optimum 70 °C)
CC(=O)C(=O)O = assay: purified protein; details: synthesis direction, 20 mM ManNAc fixed, 20 mM phosphate pH 7.0, optimal temperature (65 °C)

T1 sequence (A0A2P1G7E2 1-294): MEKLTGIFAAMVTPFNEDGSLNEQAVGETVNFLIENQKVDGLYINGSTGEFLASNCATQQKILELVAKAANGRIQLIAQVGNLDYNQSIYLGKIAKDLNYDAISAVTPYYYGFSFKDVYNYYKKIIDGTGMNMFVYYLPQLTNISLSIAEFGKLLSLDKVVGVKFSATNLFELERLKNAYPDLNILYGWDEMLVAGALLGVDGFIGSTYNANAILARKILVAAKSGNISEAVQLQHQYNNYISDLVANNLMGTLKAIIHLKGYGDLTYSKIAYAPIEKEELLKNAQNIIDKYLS

In the case of CC(=O)N[C@@H]1C(O)O[C@H](CO)[C@@H](O)[C@@H]1O (stereo partly drawn) [ManNAc], the Km (MyNal [1]) is reported as 6.9 ± 0.5 mM.

For CC(=O)N[C@H]1[C@H]([C@H](O)[C@H](O)CO)OC(O)(C(=O)O)C[C@@H]1O (stereo partly drawn) [Neu5Ac], the Km (MyNal [2]) was 1.8 ± 0.2 mM.

In the case of MyNal (Mycoplasma sp.), the Km (CC(=O)C(=O)O) is reported as 5.9 ± 0.9 mM.
